Assay results taken from patent EP0516157A1, “Preparation of 6-0-alkylelsamicin A derivatives” (priority 1991, dated 1992).
Where two headings read alike, the source gives them in different places.

What was measured:
[1] = tested on: murine melanoma B16-F10 cells; assay: In vitro cytotoxicity, neutral red staining after 72 hours; details: for Cytotoxicity IC50: 72 hours incubation
Description: (§2) For in vitro cytotoxicity experiment, murine melanoma B16-F10 cells were grown and maintained in Eagle's minimum essential medium (Nissui), which contains kanamycin (60 µg/ml), supplemented with heat-inactivated fetal calf serum (10%) and nonessential amino acids (0.6%) at 37°C under a humidified atmosphere in a 5% CO₂ incubator. Exponentially growing B16-F10 cells were harvested, counted and suspended in the culture medium at the concentration of 2.0x10⁴ cells/ml. The cell suspension (180 µl) was planted into wells of a 96-well microtiter plate and incubated for 24 hours. Test compounds (20 µl) were added to the wells and the plates were further incubated for 72 hours. The cytotoxic activity was colorimetrically determined at 540 nm after staining viable cells with neutral red solution.

melanoma B16 = assay: In vivo antitumor activity against B16 melanoma in mice; details: for T/C % of MST: B16, male BDF1 mice; for T/C % of MST / No. of survivors/tested on day 50: Q4Dx3 ip
Description: (§1) In vivo antitumor activity of the above fifteen derivatives was tested in the lymphocytic leukemia P388 and melanoma B16 systems. Female CDF₁ (for P388) and male BDF₁ (for B16) mice were inoculated by ip injection at 10⁶ P388 cells and 0.5 ml of a 10% B16 brei per mouse, respectively (day 0). […] The percent increase of median survival time (MST) of treated animals over that of untreated control animals was determined and reported as T/C %. Compounds showing T/C % values of 125 or greater are considered to have significant antitumor activity.

[2] = tested on: murine melanoma B16-F10 cells
Description: as §2

[3] = tested on: lymphocytic leukemia P388; assay: In vivo antitumor activity against P388 leukemia in mice; details: for T/C % of MST: P388, female CDF1 mice, Q1Dx3 ip; for anti-P388 activity compared with elsamicin A / toxicity compared with elsamicin A: P388 system, in words
Description: as §1

Compound	Cytotoxicity IC50 [1] [µg/mL]	T/C % of MST (melanoma B16; 0.1 mg/kg/day) [%]	T/C % of MST (melanoma B16; 0.3 mg/kg/day) [%]	T/C % of MST (melanoma B16; 1 mg/kg/day) [%]	T/C % of MST (melanoma B16; 3 mg/kg/day) [%]	T/C % of MST (melanoma B16; 10 mg/kg/day)	cytotoxicity compared with the parent compound [2]	T/C % of MST ([3]; 0.1 mg/kg/day) [%]	T/C % of MST ([3]; 0.3 mg/kg/day) [%]	T/C % of MST ([3]; 1 mg/kg/day) [%]	T/C % of MST ([3]; 3 mg/kg/day) [%]	T/C % of MST ([3]; 10 mg/kg/day) [%]	T/C % of MST ([3]; 20 mg/kg/day)	anti-P388 activity compared with elsamicin A [3]	toxicity compared with elsamicin A [3]	cytotoxicity compared with the parent compound ([1]; in words, versus elsamicin A)	No. of survivors/tested on day 50 (melanoma B16; B16, 10 mg/kg/day)	chemotherapeutic activity in the B16 system (melanoma B16; B16 system, in words)	T/C % of MST ([3]; 40 mg/kg/day) [%]	No. of survivors/tested on day 50 (melanoma B16; B16, 3 mg/kg/day)
CCOc1c2cccc(OC3OC(C)C4OC(C)(C)OC4(C)C3OC3OC(C)C(O)C(OC)C3N)c2c2oc(=O)c3c(C)ccc4oc(=O)c1c2c43 (centres unmarked) [Compound 8b, 6-O-Ethyl-3'4'-O-isopropylideneelsamicin A]	0.06	97	106	119	153	216%	approximately equipotent cytotoxicity to the parent compound	110	125	125	140	190	200%	as active as elsamicin A	seemed to be less toxic					
COC1C(N)C(OC2C(Oc3cccc4c(OCCCN5C(=O)c6ccccc6C5=O)c5c(=O)oc6ccc(C)c7c(=O)oc(c34)c5c67)OC(C)C(O)C2(C)O)OC(C)C1O (centres unmarked) [Compound 7h, 6-O-(3-phthalimidopropyl)elsamicin A]	0.71							105	105	120	125	140								
COc1c2cccc(OC3OC(C)C(O)C(C)(O)C3OC3OC(C)C(O)C(OC)C3N)c2c2oc(=O)c3c(C)ccc4oc(=O)c1c2c43 (centres unmarked) [Compound 7a, 6-O-Methylelsamicin A]	0.19																			
CCOc1c2cccc(OC3OC(C)C(O)C(C)(O)C3OC3OC(C)C(O)C(OC)C3N)c2c2oc(=O)c3c(C)ccc4oc(=O)c1c2c43 (centres unmarked) [Compound 7b, 6-O-Ethylelsamicin A]	0.06	103	113	144	178	≧313%		110	125	130	150	170	170%	as active as elsamicin A	seemed to be less toxic	approximately equipotent cytotoxicity to the parent compound	(3/4)	excellent chemotherapeutic activity	180	
CCCOc1c2cccc(OC3OC(C)C(O)C(C)(O)C3OC3OC(C)C(O)C(OC)C3N)c2c2oc(=O)c3c(C)ccc4oc(=O)c1c2c43 (centres unmarked) [Compound 7c, 6-O-n-Propylelsamicin A]	0.03						approximately equipotent cytotoxicity to the parent compound	105	129	133	152	152	155%	as active as elsamicin A	seemed to be less toxic				159	
COC1C(N)C(OC2C(Oc3cccc4c(OC(C)C)c5c(=O)oc6ccc(C)c7c(=O)oc(c34)c5c67)OC(C)C(O)C2(C)O)OC(C)C1O (centres unmarked) [Compound 7d, 6-O-Isopropylelsamicin A]	0.49							95	119	124	133	148								
COC1C(N)C(OC2C(Oc3cccc4c(OCCCN5C(=O)c6ccccc6C5=O)c5c(=O)oc6ccc(C)c7c(=O)oc(c34)c5c67)OC(C)C3OC(C)(C)OC32C)OC(C)C1O (centres unmarked) [Compound 8h, 3'4'-O-Isopropylidene-6-O-(3-phthalimidopropyl)elsamicin A]	0.4							100	110	110	120	130								
COC1C(N)C(OC2C(Oc3cccc4c(OCCCN)c5c(=O)oc6ccc(C)c7c(=O)oc(c34)c5c67)OC(C)C(O)C2(C)O)OC(C)C1O (centres unmarked) [Compound 7i, 6-O-(3-Aminopropyl)elsamicin A]	2.3								105	110	110	130								
CCCCCCCCCCOc1c2cccc(OC3OC(C)C(O)C(C)(O)C3OC3OC(C)C(O)C(OC)C3N)c2c2oc(=O)c3c(C)ccc4oc(=O)c1c2c43 (centres unmarked) [Compound 7g, 6-O-n-Decylelsamicin A]	2.5		107	126	153	183%			115	105	115	100								
COC1C(N)C(OC2C(Oc3cccc4c(O)c5c(=O)oc6ccc(C)c7c(=O)oc(c34)c5c67)OC(C)C(O)C2(C)O)OC(C)C1O (centres unmarked) [Elsamicin A (1), Elsamicin A]	0.05	120	139	178	≥ 216	≥ 305%		124	138	155	180	206	Tox				9/24			2/24
COC1C(N)C(OC2C(Oc3cccc4c(OCCCN)c5c(=O)oc6ccc(C)c7c(=O)oc(c34)c5c67)OC(C)C3OC(C)(C)OC32C)OC(C)C1O (centres unmarked) [Compound 8i, 6-O-(3-Aminopropyl)-3',4'-isopropylideneelsamicin A]	1.8								105	110	120	135								
CCCCCCOc1c2cccc(OC3OC(C)C4OC(C)(C)OC4(C)C3OC3OC(C)C(O)C(OC)C3N)c2c2oc(=O)c3c(C)ccc4oc(=O)c1c2c43 (centres unmarked) [Compound 8f, 6-O-n-Hexyl-3'4'-O-isopropylideneelsamicin A]	0.9							110	110	110	115	120								
CCCCCCOc1c2cccc(OC3OC(C)C(O)C(C)(O)C3OC3OC(C)C(O)C(OC)C3N)c2c2oc(=O)c3c(C)ccc4oc(=O)c1c2c43 (centres unmarked) [Compound 7f, 6-O-n-Hexylelsamicin A]	0.11	107	111	129	132	146%		100	105	120	130	140								
CCCCCCCCCCOc1c2cccc(OC3OC(C)C4OC(C)(C)OC4(C)C3OC3OC(C)C(O)C(OC)C3N)c2c2oc(=O)c3c(C)ccc4oc(=O)c1c2c43 (centres unmarked) [Compound 8g, 6-O-n-Decyl-3'4'-O-isopropylideneelsamicin A]	2.9								115	105	115	100								
CCCCOc1c2cccc(OC3OC(C)C(O)C(C)(O)C3OC3OC(C)C(O)C(OC)C3N)c2c2oc(=O)c3c(C)ccc4oc(=O)c1c2c43 (centres unmarked) [Compound 7e, 6-O-n-Butylelsamicin A]	0.03		123	127	160	213%	approximately equipotent cytotoxicity to the parent compound	110	124	133	152	162	141%	as active as elsamicin A	seemed to be less toxic				164	
COc1c2cccc(OC3OC(C)C4OC(C)(C)OC4(C)C3OC3OC(C)C(O)C(OC)C3N)c2c2oc(=O)c3c(C)ccc4oc(=O)c1c2c43 (centres unmarked) [Compound 8a, 3',4'-O-Isopropylidene-6-O-methylelsamicin A]	0.08																			
